Experimental data reported in patent US12098147B2, “Compound having novel structure, complex comprising same, anti-cancer pharmaceutical composition, and anti-cancer drug” (ETNOVA THERAPEUTICS CORP., priority 2018, dated 2024).
Where two headings read alike, the source gives them in different places.

Assays:
[1] = test system: NE-4C; experiment: CCK-8 cell viability, NE-4C neural stem cell line; format: cell-based; details: for IC50: serum-free medium, 24 hours, CCK-8, mean ± SD of 2 to 3 experiments, read-out: IC50 NC-4C (Neural stem cell); for toxicity against brain neurons, in words: brain neurons (NE-4C), FIG. 4
Description: (§1) CCK-8 (Cell counting kit-8) is analyzed using a highly water-soluble tetrazolium salt-[…]. [2-(2-methoxy-4-nitrophenyl)-3-(4-nitrophenyl)(2,4-disulfophenyl)-2H-tetrazolium, monosodium salt] is reduced under the presence of an electron medium to produces a water-soluble formazan orange dye. The amount of the formazan dye produced by dehydrogenase in a cell is directly proportional to the number of living cells.
(§2) In an experimental method for evaluating the properties of the compounds according to the present disclosure, various cancer cell lines derived from humans and normal cell lines of each tissue derived from humans and mice were used in this experiment. A complete growth medium corresponding to each cell line and having 10% of heat-inactivated FBS added thereto was used to maintain corresponding cells. The maintained cells were suspended in a volume of 200 μl at a density of 1 or 1.5×10^4 cells and planted in each well of a 96 well plate. The cells were attached to a 37° C. and 5% CO2 incubator for more than 14 hours, and we waited for a stable state. The next day, we removed the medium from the well. 100 μl of serum-free medium containing drugs of various concentrations (0 (control), 2.5, 5, 10, 20, 30, 40, 50, 100, 200 μM) was added to each well and the cells was cultured therein. On 22 hours after the incubation, 10 μl of CCK-8 solution was added to each well, followed by incubation for 2 hours. A plate on which the culture was completed was measured in terms of absorbance at 450 nm using a microplate reader.
(§3) Cell Viability Calculation:
(§4) • A: Absorbance value measured in a control well • B: Absorbance value measured in a well containing the drug
(§5) In Table 1 below, each compound was applied to the cells at 0, 2.5, 5, 10, 20, 30, 40, 50, 100, and 200 μM, and the cells was cultured in a medium free of serum for 24 hours. The measured absorbance value was converted to a % value based on a value of 0, such that a IC50 value was calculated. Each experiment was performed 2 to 3 times and a standard deviation value was obtained.

[2] = test system: MDA-MB-231; experiment: CCK-8 cell viability, MDA-MB-231 breast cancer cell line; format: cell-based, human; details: serum-free medium, 24 hours, mean ± SD of 2 to 3 experiments
Description: (§6) To identify the anticancer effect of the compounds L1, L2, and L3 according to Examples 1 to 3 of the present disclosure, and the complexes L1Pt, L2Pt, and L3Pt according to Examples 4 to 6 of the disclosure, the cell viability analysis of cancer cells using CCK-8 was performed on several cancer cell lines (colorectal cancer cell line (HT-29 cell line), breast cancer cell line (MCF-7 and MDA-MB-231), cervical cancer cell line (HeLa cell line), liver cancer cell line (Huh-7 and HepG2), brain glioma cell line (C6), lung cancer (A549), prostate cancer (PC3), kidney cancer (Caki-2), normal liver cell line (AML-12), embryonic kidney cell line (HEK-293), neural stem cell line (NE-4C) and normal breast epithelial cell line (MCF10a)).
as §1, §2, §3, §4, §5

[3] = test system: Huh-7; experiment: CCK-8 cell viability, Huh-7 liver cancer cell line; format: cell-based, human; details: 24 hours, mean ± SD of 2 to 3 experiments
Description: as §6, §1, §2, §3, §4, §5

[4] = test system: C6; experiment: CCK-8 cell viability, C6 brain glioma cell line; format: cell-based, human; details: 24 hours, mean ± SD of 2 to 3 experiments
Description: as §6, §1, §2, §3, §4, §5

[5] = test system: MCF-7; experiment: CCK-8 cell viability, MCF-7 breast cancer cell line; format: cell-based, human; details: serum-free medium, 24 hours, mean ± SD of 2 to 3 experiments
Description: as §6, §1, §2, §3, §4, §5

[6] = test system: several cancer cell lines; experiment: CCK-8 cell viability, panel of cancer cell lines compared in words (FIGS. 3a to 3e); format: cell-based, human; details: for effect on cancer cell lines compared with the rest of the compounds, in words / toxic effect on cancer cell lines compared with cisplatin and BTA, in words: Log IC50 comparison, FIGS. 3a to 3e; for effect on cancer cell lines compared with the rest of the compounds, in words: comparator the rest of the compounds; for toxic effect on cancer cell lines compared with cisplatin and BTA, in words: comparators cisplatin and BTA
Description: as §6, §1, §2
Further, FIGS. 3a to 3e show a graph in which a IC50 value which is obtained based on 2 to 3 times executions of the cell viability analysis is converted to a Log IC50 value. […] The comparative reliability values for BTA were expressed as […], ##p<0.01, and ## #p<0.001. A red line represents the value of cisplatin. A blue line represents the value of BTA.

[7] = test system: MCF10a; experiment: CCK-8 cell viability, MCF10a normal breast epithelial cell line; format: cell-based; details: for IC50: serum-free medium, 24 hours, CCK-8, mean ± SD of 2 to 3 experiments; for cytotoxicity against breast epithelial cells, in words: breast epithelial cells (MCF10a), FIG. 4
Description: as §6, §1, §2, §3, §4, §5

[8] = test system: A549; experiment: CCK-8 cell viability, A549 lung cancer cell line; format: cell-based, human; details: serum-free medium, 24 hours, mean ± SD of 2 to 3 experiments
Description: as §6, §1, §2, §3, §4, §5

[9] = test system: HepG2; experiment: CCK-8 cell viability, HepG2 liver cancer cell line; format: cell-based, human; details: 24 hours, mean ± SD of 2 to 3 experiments
Description: as §6, §1, §2, §3, §4, §5

[10] = test system: HeLa cell line; experiment: CCK-8 cell viability, HeLa cervical cancer cell line; format: cell-based, human; details: serum-free medium, 24 hours, mean ± SD of 2 to 3 experiments
Description: as §6, §1, §2, §3, §4, §5

[11] = test system: HEK-293; experiment: CCK-8 cell viability, HEK-293 embryonic kidney cell line; format: cell-based; details: serum-free medium, 24 hours, mean ± SD of 2 to 3 experiments, read-out: IC50 HEK293 (embryonic kidney)
Description: as §6, §1, §2, §3, §4, §5

[12] = test system: AML12; experiment: CCK-8 cell viability, AML-12 normal liver cell line; format: cell-based; details: serum-free medium, 24 hours, CCK-8; mean ± SD of 2 to 3 experiments
Description: as §1, §2, §3, §4, §5

[13] = test system: Caki-2; experiment: CCK-8 cell viability, Caki-2 kidney cancer cell line; format: cell-based, human; details: serum-free medium, 24 hours, mean ± SD of 2 to 3 experiments
Description: as §6, §1, §2, §3, §4, §5

[14] = test system: PC3; experiment: CCK-8 cell viability, PC3 prostate cancer cell line; format: cell-based, human; details: 24 hours, mean ± SD of 2 to 3 experiments
Description: as §6, §1, §2, §3, §4, §5

[15] = test system: HT-29 cell line; experiment: CCK-8 cell viability, HT-29 colorectal cancer cell line; format: cell-based, human; details: serum-free medium, 24 hours, mean ± SD of 2 to 3 experiments
Description: as §6, §1, §2, §3, §4, §5

SMILES	IC50 [1]	IC50 [2]	IC50 ([3]; serum-free medium)	IC50 ([4]; serum-free medium)	IC50 [5]	IC50 [7]	IC50 [8]	IC50 ([9]; serum-free medium)	IC50 [10]	IC50 [11]	IC50 [12]	IC50 [13]	IC50 ([14]; serum-free medium)	IC50 [15]	toxicity against brain neurons, in words [1]	effect on cancer cell lines compared with the rest of the compounds, in words [6]	toxic effect on cancer cell lines compared with cisplatin and BTA, in words [6]	cytotoxicity against breast epithelial cells, in words [7]	other results
N.N.[Cl][Pt][Cl] [Cisplatin, cisplatin, reference compound]	9.01 ± 0.28 µM	181 ± 48.7 µM	38.6 ± 18.5 µM	227 ± 34.3 µM	204 ± 27.3 µM	96 ± 6.72 µM	> 500 µM	54.2 ± 31.8 µM	26.2 ± 5.61 µM	65.5 ± 4.06 µM	32.1 ± 4.45 µM	> 500 µM	> 500 µM	39.1 ± 0.61 µM					effect on cancer cell lines, in words ([6]; Log IC50, FIGS. 3a to 3e, no comparator): did not have a great effect on lung cancer, prostate cancer, and kidney cancer
NCC(N)C(=O)Nc1ccc(-c2nc3ccccc3s2)cc1 (stereo not drawn) [Example L1, 2,3-diamoniumtrifluoroacetate-N-(4-benzothiazol-2-yl-phenyl)-propionamide]															greater toxicity than BTA did	superior effects on breast cancer, liver cancer, brain glioma, lung cancer, prostate cancer, and kidney cancer than the rest of the compounds did	greater toxic effect against cancer cell lines of colorectal cancer, breast cancer, liver cancer, brain glioma, lung cancer, prostate cancer, and kidney cancer than the cisplatin and BTA did	weak cytotoxicity	IC50 ([1]; Neural stem cell): 36.8 ± 3.66 µM; IC50 ([3]; Homo sapiens, Huh-7, serum-free medium): 69.1 ± 5.25 µM; IC50 ([4]; Rattus norvegicus, C6, serum-free medium): 77.8 ± 9.73 µM; IC50 ([9]; Homo sapiens, HepG2, serum-free medium): 5.94 ± 0.501 µM; IC50 ([14]; Homo sapiens, PC-3, serum-free medium): 94.99 ± 0.82 µM
NCC(N)C(=O)Nc1ccc(-c2nc3ccccc3s2)cc1.[Cl][Pt][Cl] (stereo not drawn) [Example L1Pt]	25.7 ± 1.66 µM	80.8 ± 10.5 µM	69.4 ± 1.24 µM	93.3 ± 22.7 µM	59 ± 11.1 µM	46.9 ± 5.14 µM	167 ± 11.2 µM	7.49 ± 0.159 µM	64.75 ± 0.31 µM	54.9 ± 2.83 µM	139.1 ± 0.85 µM	106 ± 8.54 µM	55.7 ± 7.47 µM	42.6 ± 5.61 µM	greater toxicity than BTA did	superior effects on breast cancer, liver cancer, brain glioma, lung cancer, prostate cancer, and kidney cancer than the rest of the compounds did	greater toxic effect against cancer cell lines of colorectal cancer, breast cancer, liver cancer, brain glioma, lung cancer, prostate cancer, and kidney cancer than the cisplatin and BTA did	weak cytotoxicity	
